Test results from ChEMBL document CHEMBL1157539, “Thousands of chemical starting points for antimalarial lead identification” (Nature, 2010).

Test system: Plasmodium falciparum
Experiment: GSK_TCMDC: Inhibition of Plasmodium falciparum 3D7 in whole erythrocytes, using parasite LDH activity as an index of growth.
Type: functional, organism-based

Row | SMILES | XC50 (Plasmodium falciparum, 3D7) | XC50
1 | Cc1cccc2nc(-c3cccc(-c4ccc(CNCCc5ccncc5)cc4)c3)[nH]c12 | 119 nM | 
2 | Cc1ccc(-n2nc(-c3ccccc3)c3cc(C(=O)NCCN)sc32)cc1 | 1370 nM | 
3 | O=c1cc(NCCCCNCc2ccc(Br)c(Br)c2)[nH]c2ccccc12 | 856 nM | 
4 | O=C(Nc1ccc(Cn2ncc(N3CCCNCC3)c(Cl)c2=O)cc1)Nc1ccc(-c2ccccc2)cc1 |  | 815 nM
5 | COc1ccc(-c2ccc(NC(=O)c3cccc(F)c3)cc2)cc1CNC(C)C | 808 nM | 
6 | CCc1c(CCNC/C=C/C=C/CNCCc2ccc(OC)c(OC)c2CC)ccc(OC)c1OC | 968 nM | 
7 | Nc1nc(N)c2c(n1)CCC(c1ccccc1)C2 (stereo not drawn) | 1010 nM | 
8 | N#Cc1ccc2c(c1)CCN(CCC1CCC(NC(=O)/C=C/c3cccc4cc[nH]c34)CC1)CC2 (stereo not drawn) | 1090 nM | 
9 | O=C(Nc1ccc(C(=O)N2CCN(CCN3CCN(c4cccc(C(F)(F)F)c4)CC3)CC2)cc1)c1ccc(OC(F)(F)F)cc1 | 691 nM | 
10 | CC(C)(C)Nc1cc(C(=O)N[C@@H](Cc2ccccc2)[C@H](O)CNC2CCOCC2)cc(N2CCCCS2(=O)=O)c1 | 150 nM | 
11 | O=c1cc(NCCCNCc2cccc(OC(F)(F)C(F)F)c2)[nH]c2ccccc12 | 1270 nM | 
12 | CC1(C)C=C(c2ccncc2)c2cc(Cl)ccc2O1 | 430 nM | 
13 | Cc1ccnc(-n2c(C)cc(C=C3SC(=Nc4ccccc4)N(Cc4ccco4)C3=O)c2C)c1 | 237 nM | 
14 | O=S(=O)(c1ccc(OCc2ccc(Cl)cc2)cc1)c1cc2c(cc1O)CCN(C1CCC1)CC2 | 942 nM | 
15 | CN(CCN)Cc1ccc(-c2ccc(-c3nc4cc(F)ccc4[nH]3)s2)cc1 | 1070 nM | 
16 | COc1cc(NC(=O)c2ccc(-c3ccccc3)cc2)ccc1OCCCN1CCC(c2ccccc2)CC1 | 752 nM | 
17 | CCCCC1(NC(=O)[C@@H](Nc2ccc(C#N)c3ccccc23)C2CCCCC2)CCCCC1 | 1120 nM | 
18 | Cc1cc(N2CCCC2)nc(NC(=N)Nc2cccc(C(F)(F)F)c2)n1 | 315 nM | 
19 | CN(C)Cc1ccc(CN2CCN(CCOc3ccc(-c4ccc(Cl)cc4)cc3)CC2)o1 | 1020 nM | 
20 | Cc1ccc(OC2CCN(CCCCC3(C)C(=O)Nc4ccccc43)CC2)cc1 (stereo not drawn) | 743 nM | 
21 | COc1ccc(-c2ccc(NC(=O)c3ccccc3)cc2)cc1CN1CCCN(C)CC1 | 905 nM | 
22 | O=C(Nc1ccc(Cl)cc1F)NC1CCN(CCCCCNC(=O)C2CC2c2ccc(Cl)c(Cl)c2)CC1 (stereo not drawn) | 510 nM | 
23 | COc1ccc(-c2cc(C(F)(F)F)n3ncc(C(=O)Nc4cc(C)ccc4O)c3n2)cc1OC | 133 nM | 
24 | CCN(CC)CCN(Cc1ccc(-c2ccc(C(F)(F)F)cc2)cc1)C(=O)Cn1cc(CCCc2cccc(F)c2F)c(=O)c2ccccc21 | 1060 nM | 

Row | SMILES | XC50 (Plasmodium falciparum, 3D7) | XC50
25 | CCCCN(CCCC)CC(O)c1cc(-c2ccc(Cl)cc2)nc2c(Cl)cc(Cl)cc12 (stereo not drawn) | 26.3 nM | 
26 | CCCCNc1cc(C)nc(NCc2ccccc2)n1 | 975 nM | 
27 | N=C(Nc1nc(-c2ccccn2)cc2ccccc12)c1cccc(Cl)c1 | 309 nM | 
28 | FC(F)(F)c1ccc2[nH]c(-c3ccc(-c4ccc(CN5CCN(c6cnccn6)CC5)cc4)s3)nc2c1 | 652 nM | 
29 | c1cc(CNc2ncc(-c3ccsc3)c(-c3nccs3)n2)ccn1 | 358 nM | 
30 | CC(Cc1ccc(OCCCCOc2ccccc2)cc1)NCCCN1CCOCC1 (stereo not drawn) | 725 nM | 
31 | COC(=O)c1ccc(C(=O)NCCCCN2CCC(c3ccc4c(c3OC)CCCC4)CC2)cc1-c1ccc(C(F)(F)F)cc1 | 1150 nM | 
32 | CCCNS(=O)(=O)c1ccc(NC(=O)C(C)Oc2ccc([N+](=O)[O-])cc2)cc1 (stereo not drawn) | 719 nM | 
33 | Cc1cnc(CN(Cc2ccc(-c3ccc(CNCCc4ccc(S(C)(=O)=O)cc4)cn3)cc2)C(=O)c2ccc([N+](=O)[O-])c(C)c2)cn1 | 919 nM | 
34 | COC(=O)c1ccc2nc(-c3ccc(C(=O)NCc4ccc(Cl)c(Cl)c4)cc3)[nH]c2c1 | 852 nM | 
35 | Cc1cccn2c(=O)c3cc(C(=O)NCc4cccnc4)c(=N)n(CCc4ccccc4)c3nc12 | 714 nM | 
36 | CC(C)(CNC(=O)[C@@H]1CCCN(CCOc2ccc(F)c(F)c2)C1)c1nc(-c2ccc(Cl)c(O)c2)c(-c2ccncc2)[nH]1 | 722 nM | 
37 | O=C(NC1CC1)c1ccc(Cn2c(SCc3cccc([N+](=O)[O-])c3)nc3ccccc3c2=O)cc1 | 764 nM | 
38 | CCCC(C)Nc1nc(C)cc(N[C@@H](Cc2ccccc2)C(=O)NCc2ccc(C)cc2)n1 (stereo partly drawn) | 1120 nM | 
39 | O=S(=O)(NCCN1CCCC1)c1cccc(-c2ccc(CNCc3ccc(F)cc3)cc2)c1 | 234 nM | 
40 | N#Cc1cccc(-c2cnc(N)c(-c3nc4cc(S(N)(=O)=O)ccc4[nH]3)c2)c1 | 644 nM | 
41 | CN1CCN(c2ccnc3ccc(NC(=O)c4ccc(Cl)c(Cl)c4)cc23)CC1 | 710 nM | 
42 | Cc1noc(C)c1-c1cccc(CNCc2ccc(-c3ccc(-c4nc5cc(F)ccc5[nH]4)s3)cc2)c1 | 423 nM | 
43 | O=C(/C=C/c1ccc(Cl)c(Cl)c1)N1CCCC(CCCN2CCC(c3c[nH]c4ccccc34)CC2)C1 (stereo not drawn) | 1090 nM | 
44 | CCN(CCCN1CCCCC1)c1cc(C)nc(Nc2ccc(F)c(C(F)(F)F)c2)n1 | 147 nM | 
45 | Cc1cc(N2CCCN(C)CC2)nc(Nc2ccc(Cl)cc2)n1 | 795 nM | 
46 | CN1CCN(Cc2ccc(-c3ccc4c(Nc5cc(O)c(F)cc5Cl)ccnc4c3)o2)CC1 | 132 nM | 
47 | CCc1c(CCNCCCCCCNC(C)Cc2ccc3c(c2CC)OCO3)ccc(OC)c1OC (stereo not drawn) | 870 nM | 
48 | O=C(/C=N/O)Nc1ccccc1[N+](=O)[O-] | 785 nM | 
